≈ marks a conversion by molar mass, not a printed value.
Columns and labels:
[1] = Inhibition of protein kinase A (unknown origin); design: species or system Homo sapiens
SF-268 = assay: Cytotoxicity against human SF268 cells assessed as cell killing at 50 uM relative to control; format: functional
HeLa S3 = assay: Cytotoxicity against human HeLaS3 cells; format: functional, cell-based
C6 = assay: Cytotoxicity against rat C6 cells assessed as decrease in cell viability; format: functional, cell-based
[2] = target: Sodium-dependent noradrenaline transporter (Homo sapiens) (UniProt P23975); assay: Inhibition of norepinephrine transporter (unknown origin) at 10 uM
[3] = target: Sodium-dependent serotonin transporter (Homo sapiens) (UniProt P31645); assay: Inhibition of serotonin transporter (unknown origin) at 10 uM
[4] = target: C-X-C chemokine receptor type 4 (Rattus norvegicus) (UniProt O08565); assay: Antagonist activity at CXCR4 in rat GH4C1 cells assessed as inhibition of CXCL12-induced DNA synthesis at 10 uM after 72 hrs by BrdU incorporation assay; format: functional, cell-based
HeLa = assay: Cytotoxicity against human HeLa cells assessed as decrease in cell viability; format: functional, cell-based
3T3-L1 = assay: Cytotoxicity against mouse 3T3L1 cells assessed as decrease in cell viability; format: cell-based
[5] = target: C-X-C chemokine receptor type 4 (Rattus norvegicus) (UniProt O08565); assay: Antagonist activity at CXCR4 in rat GH4C1 cells assessed as inhibition of CXCL12-induced cell migration at 0.1 uM after 72 hrs by BrdU incorporation assay; format: functional, cell-based
[6] = target: Mu-type opioid receptor (Homo sapiens) (UniProt P35372); assay: Inhibition of mu opioid receptor (unknown origin) at 10 uM
[7] = target: Sodium-dependent dopamine transporter (Homo sapiens) (UniProt Q01959); assay: Inhibition of dopamine transporter (unknown origin) at 10 uM
L1210 [8] = assay: Cytotoxicity against mouse L1210 cells; format: functional, cell-based
V79 = assay: Cytotoxicity against chinese hamster V79 cells; format: cell-based; conditions: Cricetulus griseus
Ruegeria atlantica = assay: […] activity against Ruegeria atlantica assessed as inhibition zone at 50 ug/disk; format: functional; conditions: read-out: IZ
Staphylococcus aureus = assay: Antibacterial activity against Staphylococcus aureus assessed as inhibition zone at 50 ug/disk; format: functional; conditions: read-out: IZ
Saccharomyces cerevisiae = assay: Antifungal activity against Saccharomyces cerevisiae assessed as inhibition zone at 50 ug/disk; format: functional; conditions: read-out: IZ
Mucor hiemalis = assay: Antifungal activity against Mucor hiemalis assessed as inhibition zone at 50 ug/disk; format: functional; conditions: read-out: IZ
Escherichia coli = assay: Antibacterial activity against Escherichia coli assessed as inhibition zone at 50 ug/disk; format: functional; conditions: read-out: IZ
A549 = assay: Cytotoxicity against human A549 cells assessed as decrease in cell viability after 48 hrs by MTT assay; format: functional, cell-based; conditions: A549, 48 h
K562 = assay: Cytotoxicity against human K562 cells assessed as decrease in cell viability after 48 hrs by MTT assay; format: functional, cell-based; conditions: K562, 48 h
L1210 [9] = assay: Cytotoxicity against mouse L1210 cells assessed as decrease in cell viability at 5 ug; format: functional
Micrococcus luteus = assay: Antibacterial activity against Micrococcus luteus assessed as inhibition zone at 20 ug; format: functional; conditions: read-out: IZ
Human alphaherpesvirus 1 = assay: Antiviral activity against HSV1; format: functional, organism-based
T-cell = assay: Inhibition of ConA-induced cell proliferation of BALB/c mouse T-lymphocytes assessed as reduction in [3H]thymidine incorporation incubated for 48 hrs by beta scintillation counting method; format: functional
HGC-27 = assay: Growth inhibition of human HGC27 cells after 48 hrs by MTT assay; format: functional, cell-based; conditions: HGC-27, 48 h
Influenza A virus = assay: Antiviral activity against Influenza A virus (A/Hanfang/359/95(H3N2)); format: functional, organism-based

C-X-C chemokine receptor type 4 (Rattus norvegicus), sequence (O08565 whole entry): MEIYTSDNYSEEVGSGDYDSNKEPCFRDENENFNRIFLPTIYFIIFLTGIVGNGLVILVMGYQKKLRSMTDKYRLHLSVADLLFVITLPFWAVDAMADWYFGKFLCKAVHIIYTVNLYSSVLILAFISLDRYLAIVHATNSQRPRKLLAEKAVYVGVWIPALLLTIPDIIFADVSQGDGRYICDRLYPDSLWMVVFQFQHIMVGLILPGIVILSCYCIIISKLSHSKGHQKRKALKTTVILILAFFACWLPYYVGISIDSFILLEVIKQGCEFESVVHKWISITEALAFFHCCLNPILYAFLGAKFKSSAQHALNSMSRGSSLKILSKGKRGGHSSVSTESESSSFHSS
Mu-type opioid receptor (Homo sapiens), sequence (P35372 whole entry): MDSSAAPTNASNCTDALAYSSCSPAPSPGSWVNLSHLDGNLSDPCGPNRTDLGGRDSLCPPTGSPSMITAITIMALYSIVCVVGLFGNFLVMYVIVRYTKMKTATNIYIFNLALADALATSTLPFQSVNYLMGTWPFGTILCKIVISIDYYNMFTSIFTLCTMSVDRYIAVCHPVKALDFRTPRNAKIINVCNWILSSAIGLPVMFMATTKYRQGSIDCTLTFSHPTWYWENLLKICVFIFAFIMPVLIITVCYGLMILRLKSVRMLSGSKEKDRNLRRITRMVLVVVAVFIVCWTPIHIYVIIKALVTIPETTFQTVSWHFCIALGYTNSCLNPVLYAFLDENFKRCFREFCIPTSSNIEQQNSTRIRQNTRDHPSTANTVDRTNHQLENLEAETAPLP
Sodium-dependent dopamine transporter (Homo sapiens), sequence (Q01959 whole entry): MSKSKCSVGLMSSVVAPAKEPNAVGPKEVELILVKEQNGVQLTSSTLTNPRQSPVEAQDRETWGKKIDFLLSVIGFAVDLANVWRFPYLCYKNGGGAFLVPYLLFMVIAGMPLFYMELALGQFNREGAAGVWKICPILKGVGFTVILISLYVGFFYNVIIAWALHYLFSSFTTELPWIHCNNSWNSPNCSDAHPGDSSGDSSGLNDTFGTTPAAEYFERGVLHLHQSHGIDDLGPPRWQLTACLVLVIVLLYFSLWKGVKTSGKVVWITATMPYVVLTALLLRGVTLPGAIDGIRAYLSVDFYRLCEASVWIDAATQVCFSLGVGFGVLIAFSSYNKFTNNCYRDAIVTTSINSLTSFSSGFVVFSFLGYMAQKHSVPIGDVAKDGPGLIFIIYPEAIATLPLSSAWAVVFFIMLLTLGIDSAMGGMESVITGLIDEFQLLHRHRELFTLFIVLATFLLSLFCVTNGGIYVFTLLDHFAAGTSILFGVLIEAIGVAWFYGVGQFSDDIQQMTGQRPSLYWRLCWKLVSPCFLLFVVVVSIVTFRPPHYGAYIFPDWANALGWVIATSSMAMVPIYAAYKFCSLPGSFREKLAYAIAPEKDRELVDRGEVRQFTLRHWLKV
Sodium-dependent noradrenaline transporter (Homo sapiens), sequence (P23975 whole entry): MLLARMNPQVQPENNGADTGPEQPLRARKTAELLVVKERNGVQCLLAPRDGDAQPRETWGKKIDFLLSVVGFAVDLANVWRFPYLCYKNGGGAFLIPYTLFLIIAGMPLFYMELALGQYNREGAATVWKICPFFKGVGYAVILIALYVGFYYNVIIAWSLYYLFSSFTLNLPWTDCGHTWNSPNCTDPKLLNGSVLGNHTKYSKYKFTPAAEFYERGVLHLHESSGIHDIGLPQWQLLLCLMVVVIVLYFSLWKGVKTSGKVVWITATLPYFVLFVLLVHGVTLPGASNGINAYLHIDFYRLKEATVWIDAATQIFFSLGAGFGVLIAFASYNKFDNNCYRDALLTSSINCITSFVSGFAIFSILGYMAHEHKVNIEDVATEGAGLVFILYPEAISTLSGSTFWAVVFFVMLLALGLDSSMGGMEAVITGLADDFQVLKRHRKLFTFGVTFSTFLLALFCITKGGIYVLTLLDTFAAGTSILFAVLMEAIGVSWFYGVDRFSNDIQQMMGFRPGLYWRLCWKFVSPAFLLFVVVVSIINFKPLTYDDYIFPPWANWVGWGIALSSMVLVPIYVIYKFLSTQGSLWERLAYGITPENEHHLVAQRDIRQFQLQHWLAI
Sodium-dependent serotonin transporter (Homo sapiens), sequence (P31645 whole entry, looked up): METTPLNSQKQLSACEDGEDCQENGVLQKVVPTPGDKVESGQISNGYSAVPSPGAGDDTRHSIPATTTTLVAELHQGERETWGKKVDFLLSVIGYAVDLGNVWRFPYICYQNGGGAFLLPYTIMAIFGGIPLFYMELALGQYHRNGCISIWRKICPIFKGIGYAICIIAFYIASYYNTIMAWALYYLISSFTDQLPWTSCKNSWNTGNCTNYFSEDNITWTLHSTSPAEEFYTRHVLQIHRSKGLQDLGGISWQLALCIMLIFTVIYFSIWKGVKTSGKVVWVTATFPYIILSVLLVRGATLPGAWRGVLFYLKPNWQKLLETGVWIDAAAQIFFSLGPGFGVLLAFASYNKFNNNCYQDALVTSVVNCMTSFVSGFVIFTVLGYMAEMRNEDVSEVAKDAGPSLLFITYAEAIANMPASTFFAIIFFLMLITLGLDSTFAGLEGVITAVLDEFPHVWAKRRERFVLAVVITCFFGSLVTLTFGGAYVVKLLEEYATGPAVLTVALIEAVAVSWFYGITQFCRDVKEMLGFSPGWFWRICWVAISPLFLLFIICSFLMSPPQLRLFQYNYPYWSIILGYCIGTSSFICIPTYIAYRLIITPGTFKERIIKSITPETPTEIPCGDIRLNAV

Which IC50 [1] does the source give for `COc1c(OC)c2c(c(CCN)c1SC)SSSSS2` here?
Its IC50 is > 25 µg/mL.

For `CC[C@H](C)C1=C(O)[N@@+]2([O-])Oc3ccc(-c4c(O)c(O)c(-c5ccc(OC(C)=O)cc5)c(OC(C)=O)c4OC(C)=O)cc3O[C@@]2([C@@H](C)CC)C(=O)N1O`, which Activity (SF-268) is on record?
Its Activity is 95%.

For `CN1CN2CCCN3CCCC(=N1)C32` (stereo not given), which IC50 (HeLa S3) is on record?
Its IC50 is 6.8 µg/mL (≈ 35 µM).

Which results are given for `N=C(N)NCCCCCNc1noc(Cc2c[nH]c3cc(Br)ccc23)n1`?
IC50 (C6): 1500 nM; inhibition [2]: 68%; inhibition [3]: 22%; inhibition [4]: 50%; IC50 (HeLa): 1500 nM; IC50 (3T3-L1): 140 nM; inhibition [5]: 100%; inhibition [6]: 103%; inhibition [7]: 101%

With `NCCc1cc(O)c(O)c2c1SSSSS2` as the molecule, how does the IC50 [1] read?
Its IC50 is > 25 µg/mL.

What does the source list for `COc1cc(CCN(C)C)c2c(c1O)SSSSS2` [ISOLISSOCLINOTOXIN B]?
IC50 (L1210 [8]): 640 nM; IC50 (V79): 250 nM

With `COc1c(OC)c2c(c(CCN(C)C)c1SC)SSSSS2` as the molecule, how does the zone of inhibition at 50 µg/disc (Ruegeria atlantica) read?
Its zone of inhibition at 50 µg/disc is 14.2 to 30 mm.

What about the IC50 [1] of the same molecule?
Its IC50 is > 25 µg/mL.

And the IC50 (V79)?
Its IC50 is 150 nM.

What about the zone of inhibition at 50 µg/disc (Staphylococcus aureus) of the same molecule?
The zone of inhibition at 50 µg/disc was 14.2 to 30 mm.

What about the zone of inhibition at 50 µg/disc (Saccharomyces cerevisiae) of the same molecule?
The zone of inhibition at 50 µg/disc was 14.2 to 30 mm.

What about the zone of inhibition at 50 µg/disc (Mucor hiemalis) of the same molecule?
The zone of inhibition at 50 µg/disc was 14.2 to 30 mm.

What about the zone of inhibition at 50 µg/disc (Escherichia coli) of the same molecule?
Its zone of inhibition at 50 µg/disc is 14.2 to 30 mm.

What does the source list for `CC1=C(c2ccccc2)N(C)NC(=O)N1`?
IC50 (A549): 21.8 µM; IC50 (K562): 66.9 µM

Which zone of inhibition at 50 µg/disc (Staphylococcus aureus) does the source give for `COc1cc(CCN(C)C)c2sc3c(O)c(OC)cc(CCN(C)C)c3ssc2c1O` [LISSOCLIBADIN 4] here?
Its zone of inhibition at 50 µg/disc is 13.1 mm.

What about the zone of inhibition at 50 µg/disc (Escherichia coli) of the same molecule?
Its zone of inhibition at 50 µg/disc is 15.7 mm.

What does the source list for `N[C@@H]1CSCON2CCc3c([nH]c4ccc(O)c(Br)c34)[C@H]12` [EUDISTOMIN E]?
Activity (L1210 [9]): 100%; zone of inhibition at 20 µg/disc (Micrococcus luteus): 46 mm

With `C=C[C@H](O)Cc1nsc(C2=CCCS[C@@]23C(=O)Nc2ccccc23)n1` as the molecule, how does the IC50 (Human alphaherpesvirus 1) read?
The IC50 was 25.9 µM.

Which IC50 (T-cell) does the source give for `COC1=C[C@@H](C)O[C@@H](O[C@H]2CC[C@@]3(C)C(=CC[C@@H]4[C@@H]3CC[C@@]3(C)[C@H]4CC[C@]3(O)[C@H](C)O[C@H]3C[C@H]4OCO[C@@]5(C[C@@H](OC)[C@H](O[C@H]6C[C@H](O)[C@H](O[C@H]7C[C@@H](O)[C@H](O[C@H]8C[C@H](OC)[C@H](O[C@@H]9O[C@H](C)[C@H](O)[C@H](OC)[C@H]9OC(C)=O)[C@@H](C)O8)[C@@H](C)O7)[C@@H](C)O6)[C@@H](C)O5)O[C@@H]4[C@@H](C)O3)C2)C1=O` here?
Its IC50 is 290 to 1970 nM.

For `COc1c(OC)c2c(c(CCN)c1SC)SSS2`, which IC50 [1] is on record?
Its IC50 is > 25 µg/mL.

With `CC[C@H](C)C1=C(OC(C)=O)[N@+]2([O-])Oc3ccc(-c4c(O)c(O)c(-c5ccc(OC(C)=O)cc5)c(OC(C)=O)c4OC(C)=O)cc3O[C@@]2([C@@H](C)CC)C(=O)N1O` as the molecule, how does the Activity (SF-268) read?
Its Activity is 93%.

Which IC50 (HGC-27) does the source give for `Oc1ccc(Cc2nsc(Cc3ccc(O)cc3)n2)cc1` here?
Its IC50 is 172 µM.

With `C=C[C@@H](O)Cc1nsc(C2=CCCS[C@]23C(=O)Nc2ccccc23)n1` as the molecule, how does the IC50 (Influenza A virus) read?
The IC50 was 33.3 µM.

What about the IC50 (Human alphaherpesvirus 1) of the same molecule?
Its IC50 is 33.3 µM.

— ChEMBL document CHEMBL4265876, “Natural Products with Heteroatom-Rich Ring Systems” (J Nat Prod, 2017)
